Experimental data as given in patent US12637461B2, “Compounds for the activation of AMPK” (PFIZER INC., priority 2022, dated 2026).

Target: T1, human AMPK α2β2γ3 (Homo sapiens, UniProt O43741+P54646+Q9UGI9)
T1 construct: expressed in transfected cells; host or cells: HEK293AD cells, MaxCyte bulk electroporation
Test: Primary cellular assay: γ3 associated phospho-Thr172 AMPK detection (custom pAMPK Surefire AlphaLISA) in α2β2γ3 bulk transiently transfected HEK293 cells
Type: cell-based
Conditions: activation of human AMPK α2β2γ3 (γ3 pThr172 AMPK signal) in transiently transfected HEK293 cells, 20 minutes compound incubation; for EC50: geometric mean EC50, read-out: Assay GMean EC50; for Assay GMean Asy. Max (%) / Emax: geometric mean of the asymptotic max; for Emax: 20 min, read-out: Assay GMean Asy. Max (%)
In short: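 Transiently co-transfected (α2/β2/γ3 plasmids, electroporation) HEK293AD cells, plated 2 days in low-glucose DMEM+10% FBS, treated 20 min with compounds (11-point half-log dilutions). Lysates read by modified AlphaLISA capturing γ3 with pThr172 antibody detection. % effect relative to 30 μM HPE and DMSO; EC50 and Emax from curve fit.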

T1 sequence (P54646 whole entry): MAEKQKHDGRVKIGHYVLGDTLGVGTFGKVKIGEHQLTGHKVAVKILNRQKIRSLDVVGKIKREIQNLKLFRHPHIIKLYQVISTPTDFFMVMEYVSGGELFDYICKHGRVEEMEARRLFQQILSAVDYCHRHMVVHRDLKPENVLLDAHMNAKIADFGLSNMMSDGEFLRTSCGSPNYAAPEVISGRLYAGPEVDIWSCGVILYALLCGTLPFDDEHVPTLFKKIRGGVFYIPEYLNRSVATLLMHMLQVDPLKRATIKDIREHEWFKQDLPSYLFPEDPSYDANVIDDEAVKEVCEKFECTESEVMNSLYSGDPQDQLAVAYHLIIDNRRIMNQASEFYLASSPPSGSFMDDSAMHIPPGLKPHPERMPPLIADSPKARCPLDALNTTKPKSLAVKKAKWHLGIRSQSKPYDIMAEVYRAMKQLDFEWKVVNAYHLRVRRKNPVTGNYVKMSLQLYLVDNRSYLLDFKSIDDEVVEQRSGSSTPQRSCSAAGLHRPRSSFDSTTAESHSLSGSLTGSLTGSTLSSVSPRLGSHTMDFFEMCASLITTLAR
T1 sequence (O43741 whole entry): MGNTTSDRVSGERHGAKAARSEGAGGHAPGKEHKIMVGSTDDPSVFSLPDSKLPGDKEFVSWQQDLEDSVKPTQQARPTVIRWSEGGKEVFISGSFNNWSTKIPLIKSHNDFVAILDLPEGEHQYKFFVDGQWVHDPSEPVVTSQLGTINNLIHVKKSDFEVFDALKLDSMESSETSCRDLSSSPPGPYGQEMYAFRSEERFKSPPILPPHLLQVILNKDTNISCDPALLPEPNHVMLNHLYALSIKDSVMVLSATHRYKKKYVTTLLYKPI
T1 sequence (Q9UGI9 whole entry): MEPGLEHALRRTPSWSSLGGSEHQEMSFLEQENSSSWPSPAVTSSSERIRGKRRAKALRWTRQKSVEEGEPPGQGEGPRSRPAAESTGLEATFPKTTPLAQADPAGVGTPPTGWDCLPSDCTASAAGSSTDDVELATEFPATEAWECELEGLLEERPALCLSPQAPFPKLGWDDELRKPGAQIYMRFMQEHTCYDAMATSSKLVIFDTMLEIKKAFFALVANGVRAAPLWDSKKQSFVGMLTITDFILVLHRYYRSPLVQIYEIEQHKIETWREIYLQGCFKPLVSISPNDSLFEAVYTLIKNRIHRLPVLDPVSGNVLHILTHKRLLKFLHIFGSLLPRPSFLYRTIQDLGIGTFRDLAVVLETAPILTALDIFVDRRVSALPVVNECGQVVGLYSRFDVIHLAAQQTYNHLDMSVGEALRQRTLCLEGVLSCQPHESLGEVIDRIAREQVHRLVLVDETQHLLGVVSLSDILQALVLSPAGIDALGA

EC50 [nM]	Assay GMean Asy. Max (%)	Emax [%]	Compound
165		79.2	C[C@@H](O)c1ccc(N2C[C@](C)(c3cccc(Cl)c3F)c3c(cnc(NC4CN(C(=O)[C@@H]5C[C@@H]5F)C4)c3F)C2=O)nc1 [Example 18, (4R)-4-(3-Chloro-2-fluorophenyl)-5-fluoro-6-({1-[(1S,2S)-2-fluorocyclopropane-1-carbonyl]azetidin-3-yl}amino)-2-{5-[(1R)-1-hydroxyethyl]pyridin-2-yl}-4-methyl-3,4-dihydro-2,7-naphthyridin-1(2H)-one]
63.9		77.3	C[C@H](O)c1ccc(N2C[C@](C)(c3cccc(Cl)c3F)c3c(cnc(NC4CN(C(=O)[C@@H]5C[C@@H]5F)C4)c3F)C2=O)nc1 [compound 49, (4R)-4-(3-chloro-2-fluorophenyl)-5-fluoro-6-({1-[(1S,2S)-2-fluorocyclopropane-1-carbonyl]azetidin-3-yl}amino)-2-{5-[(1S)-1-hydroxyethyl]pyridin-2-yl}-4-methyl-3,4-dihydro-2,7-naphthyridin-1(2H)-one]
58.1		79.5	Cn1ccc(N2C[C@](C)(c3cccc(Cl)c3F)c3c(cnc(NC4CN(C(=O)[C@@H]5C[C@@H]5F)C4)c3F)C2=O)n1 [compound 54, (4R)-4-(3-chloro-2-fluorophenyl)-5-fluoro-6-({1-[(1S,2S)-2-fluorocyclopropane-1-carbonyl]azetidin-3-yl}amino)-4-methyl-2-(1-methyl-1H-pyrazol-3-yl)-3,4-dihydro-2,7-naphthyridin-1(2H)-one]
33.6		112	C[C@]1(c2cccc(Cl)c2F)CN(c2ncccc2F)C(=O)c2cnc(NC3CN(C(=O)C4(O)CC4)C3)c(F)c21 [Example 1, (4R)-4-(3-Chloro-2-fluorophenyl)-5-fluoro-2-(3-fluoropyridin-2-yl)-6-{[1-(1-hydroxycyclopropane-1-carbonyl)azetidin-3-yl]amino}-4-methyl-3,4-dihydro-2,7-naphthyridin-1(2H)-one]
62.3		80.7	Cn1cc(F)c(N2C[C@](C)(c3cccc(Cl)c3F)c3c(cnc(NC4CN(C(=O)[C@@H]5C[C@H]5F)C4)c3F)C2=O)n1 [compound 78, (4R)-4-(3-chloro-2-fluorophenyl)-5-fluoro-6-({1-[(1S,2R)-2-fluorocyclopropane-1-carbonyl]azetidin-3-yl}amino)-2-(4-fluoro-1-methyl-1H-pyrazol-3-yl)-4-methyl-3,4-dihydro-2,7-naphthyridin-1(2H)-one]
22.2		58	C[C@]1(c2cccc(Cl)c2F)CN(c2ncccc2F)C(=O)c2cnc(NC3CN(C(=O)[C@@H]4C[C@@H]4F)C3)c(F)c21 [Example 6, (4R)-4-(3-chloro-2-fluorophenyl)-5-fluoro-6-({1-[(1S,2S)-2-fluorocyclopropane-1-carbonyl]azetidin-3-yl}amino)-2-(3-fluoropyridin-2-yl)-4-methyl-3,4-dihydro-2,7-naphthyridin-1(2H)-one]
23.9		43.1	CNC(=O)N1CC(Nc2ncc3c(c2F)[C@@](C)(c2cccc(Cl)c2F)CN(c2ncccc2F)C3=O)C1 [Example 20, 3-{[(5R)-5-(3-Chloro-2-fluorophenyl)-4-fluoro-7-(3-fluoropyridin-2-yl)-5-methyl-8-oxo-5,6,7,8-tetrahydro-2,7-naphthyridin-3-yl]amino}-N-methylazetidine-1-carboxamide]
65.3		57.5	C[C@]1(c2cccc(Cl)c2F)CN(c2cc(N)ccn2)C(=O)c2cnc(NC3CN(C(=O)[C@@H]4C[C@@H]4F)C3)c(F)c21 [compound 93, (4R)-2-(4-aminopyridin-2-yl)-4-(3-chloro-2-fluorophenyl)-5-fluoro-6-({1-[(1S,2S)-2-fluorocyclopropane-1-carbonyl]azetidin-3-yl}amino)-4-methyl-3,4-dihydro-2,7-naphthyridin-1(2H)-one]

More lines, now with the values behind:

Compound	EC50 [nM]	Assay GMean Asy. Max (%)	Emax [%]
CC1(c2cccc(Cl)c2F)CN(c2ncccc2F)C(=O)c2cnc(NC3CN(C(=O)C4(O)CC4(C)C)C3)nc21 (single isomer, unassigned) [Example 29, 8-(3-Chloro-2-fluorophenyl)-6-(3-fluoropyridin-2-yl)-2-{[1-(1-hydroxy-2,2-dimethylcyclopropane-1-carbonyl)azetidin-3-yl]amino}-8-methyl-7,8-dihydropyrido[4,3-d]pyrimidin-5(6H)-one]	181	216	
CC1(c2cccc(Cl)c2F)CN(c2ncccc2F)C(=O)c2cnc(NC3CN(C(=O)C4(O)CC4(C)C)C3)nc21 (single isomer, unassigned) [Example 28, 8-(3-Chloro-2-fluorophenyl)-6-(3-fluoropyridin-2-yl)-2-{[1-(1-hydroxy-2,2-dimethylcyclopropane-1-carbonyl)azetidin-3-yl]amino}-8-methyl-7,8-dihydropyrido[4,3-d]pyrimidin-5(6H)-one]	571	98.9	
CN(C)C(=O)CN1CCC(Nc2ncc3c(c2F)C(C)(c2cccc(Cl)c2F)CN(c2nn(C)cc2F)C3=O)C1 [compound 110, 2-[(3R)-3-{[5-(3-chloro-2-fluorophenyl)-4-fluoro-7-(4-fluoro-1-methyl-1H-pyrazol-3-yl)-5-methyl-8-oxo-5,6,7,8-tetrahydro-2,7-naphthyridin-3-yl]amino}pyrrolidin-1-yl]-N,N-dimethylacetamide, from P9 (DIAST-2)]	266		63.2
C[C@@H](O)C(=O)N1CC(Nc2ncc3c(c2F)[C@@](C)(c2cccc(Cl)c2F)CN(c2nn(C)cc2F)C3=O)C1 [compound 40, (4R)-4-(3-chloro-2-fluorophenyl)-5-fluoro-2-(4-fluoro-1-methyl-1H-pyrazol-3-yl)-6-({1-[(2R)-2-hydroxypropanoyl]azetidin-3-yl}amino)-4-methyl-3,4-dihydro-2,7-naphthyridin-1(2H)-one]	113		58.8
CN1CCC(N2CC(Nc3ncc4c(c3F)[C@@](C)(c3cccc(Cl)c3F)CN(c3nn(C)cc3F)C4=O)C2)C1=O (single isomer, unassigned) [compound 69]	29.2		81.6
CC1(c2cccc(F)c2F)CN(c2ccccc2)C(=O)c2cnc(NC3CN(C(=O)CN4CCCC4)C3)nc21 (stereo not shown) [Example 33, 8-(2,3-Difluorophenyl)-8-methyl-6-phenyl-2-({1-[(pyrrolidin-1-γ1)acetyl]azetidin-3-yl}amino)-7,8-dihydropyrido[4,3-d]pyrimidin-5(6H)-one]	906		104
Cn1cc(F)c(N2C[C@](C)(c3cccc(Cl)c3F)c3c(cnc(NC4CN(C(=O)C(O)C5CC5)C4)c3F)C2=O)n1 (single isomer, unassigned) [compound 43]	172	77.4	
Cn1cc(F)c(N2CC(C)(c3ccc(F)c(Cl)c3F)c3c(cnc(NC4CN(C(=O)C(C)(C)O)C4)c3F)C2=O)n1 (stereo not shown) [compound 101, 4-(3-chloro-2,4-difluorophenyl)-5-fluoro-2-(4-fluoro-1-methyl-1H-pyrazol-3-yl)-6-{[1-(2-hydroxy-2-methylpropanoyl)azetidin-3-yl]amino}-4-methyl-3,4-dihydro-2,7-naphthyridin-1(2H)-one, from P3 (ENANT-2)]	135		108
CN1CCCC(N2CC(Nc3ncc4c(c3F)[C@@](C)(c3cccc(Cl)c3F)CN(c3nn(C)cc3F)C4=O)C2)C1=O (single isomer, unassigned) [compound 72]	42.3	121	
CC(C)(CO)NC(=O)N1CC(Nc2ncc3c(n2)C(C)(c2cccc(Cl)c2F)CN(c2ncccc2F)C3=O)C1 (stereo not shown) [compound 87, 3-{[8-(3-chloro-2-fluorophenyl)-6-(3-fluoropyridin-2-yl)-8-methyl-5-oxo-5,6,7,8-tetrahydropyrido[4,3-d]pyrimidin-2-yl]amino}-N-(1-hydroxy-2-methylpropan-2-yl)azetidine-1-carboxamide, from P13 (ENANT-2)]	152		175
C[C@]1(c2cccc(Cl)c2F)CN(c2ccc(CO)cn2)C(=O)c2cnc(NC3CN(C(=O)N4C[C@@H]5C[C@H]4CO5)C3)c(F)c21 [Example 22, (4R)-4-(3-Chloro-2-fluorophenyl)-5-fluoro-2-[5-(hydroxymethyl)pyridin-2-yl]-4-methyl-6-({1-[(1 S,4S)-2-oxa-5-azabicyclo[2.2.1]heptane-5-carbonyl]azetidin-3-yl}amino)-3,4-dihydro-2,7-naphthyridin-1(2H)-one]	44.7		136
Cn1cc(F)c(N2CC(C)(c3cccc(Cl)c3F)c3c(cnc(N[C@@H]4CCN(C(=O)N5C[C@@H]6C[C@H]5CO6)C4)c3F)C2=O)n1 (single isomer, unassigned) [Example 25]	160		52.2
Cn1cc(F)c(N2CC(C)(c3cccc(Cl)c3F)c3nc(NC4CN(C(=O)[C@@H]5C[C@@H]5F)C4)ncc3C2=O)n1 (single isomer, unassigned) [Example 30]	740		178
CC1(c2cccc(Cl)c2F)CN(c2ncccc2F)C(=O)c2cnc(NC3CN(C(=O)[C@@H]4CC45CCOCC5)C3)nc21 (single isomer, unassigned) [compound 82]	107		218
Cn1cc(F)c(N2C[C@](C)(c3cccc(Cl)c3F)c3c(cnc(NC4CN(CC(N)=O)C4)c3F)C2=O)n1 [compound 68, 2-(3-{[(5R)-5-(3-chloro-2-fluorophenyl)-4-fluoro-7-(4-fluoro-1-methyl-1H-pyrazol-3-yl)-5-methyl-8-oxo-5,6,7,8-tetrahydro-2,7-naphthyridin-3-yl]amino}azetidin-1-yl)acetamide]	247		29.6
